Here are results for three molecules from patent publication US8114865B2, “Indazole derivatives as kinase inhibitors for the treatment of cancer” (Nerviano Medical Sciences S.R.L., priority 2006, dated 2012).

For this assay, the system named is IGF1-induced S6 phosphorylation. The assay can be described thus: Growth factor induced S6 ribosomal protein phosphorylation in primary human fibroblasts. To be noted: normal human dermal fibroblasts (NHDF), 10 nM IGF-1. The format is cell-based. The protocol: Phosphorylation of S6 ribosomal protein in response to growth factor stimulation of normal human dermal fibroblasts (NHDF) was used to assess compound potency in inhibiting IGF-1 induced signal transduction in cells, and selectivity towards EGF and PDGF stimulus. NHDF cells obtained from PromoCell (Heidelberg, Germany), were maintained at 37° C. in a humidified atmosphere with 5% CO2 in complete Fibroblast Growth Medium (PromoCell). For assay, NHDF were seeded in 384-well tissue culture plates (clear- and flat-bottomed black plates; Matrix Technologies Inc., Hudson, N.H., USA) at a density of 5000 cells/well in serum-free medium containing 0.1% bovine serum albumin (BSA) and incubated for 5 days. Starved cells were treated for 1 hour with desired doses of compounds and then stimulated for a further 2 hours with either 10 nM IGF-1 (Invitrogen Corp., CA, USA), 10 nM EGF (Gibco BRL, USA) or 1 nM PDGF-B/B (Roche Diagnostics GmbH, Germany). Cells were then fixed in PBS/3.7% paraformaldehyde for 20 minutes at room temperature, washed ×2 with PBS, and permeabilized with PBS/0.3% Triton X-100 for 15 minutes. Wells were then saturated with PBS/1% non-fat dry milk (Bio-Rad Laboratories, Hercules, Calif., USA) for 1 hour, and then probed for 1 hour at 37° C. with anti-phospho-S6 (Ser 235/236) antibody (Cell Signaling Technology, Beverly, Mass., USA, cat. #2211) at 1/200 dilution in PBS/1% milk/0.3% Tween 20. Wells were then washed twice with PBS, and incubated for 1 hour at 37° C. with PBS/1% milk/0.3% Tween 20+1 microg/mL DAPI (4,6-diamidino-2-phenylindole)+ 1/500 Goat anti-rabbit Cy5™-conjugated secondary antibody (Amersham Biosciences, Little Chalfont, Buckinghamshire, UK). […] Fluorescence images in the DAPI and Cy5™ channels were automatically acquired, stored and analysed using a Cellomics ArrayScan™ IV instrument (Cellomics, Pittsburgh, USA); the Cellomics Cytotoxicity Algorithm was used to quantify cytoplasmic fluorescence associated with phospho-S6 (Cy5™ signal parameter: “Mean Lyso Mass-pH”) for each cell in 10 fields/well, and eventually expressed as a mean population value. […]

As a reminder, the IC50 is the concentration that inhibits the measured activity by half. The molecule `CN1CCN(c2ccc(C(=O)Nc3n[nH]c4ccc(S(=O)(=O)c5ccccc5)cc34)cc2)CC1` [Compound 1, N-(5-Benzenesulfonyl-1H-indazol-3-yl)-4-(4-methyl-piperazin-1-yl)-benzamide] registered an IC50 of more than 10000 nM.
Regarding `CN1CCN(c2ccc(C(=O)Nc3n[nH]c4ccc(S(=O)(=O)c5ccccc5)cc34)c(NC(=O)c3ccc[nH]3)c2)CC1` [Compound 33, 1H-pyrrole-2-carboxylic acid [2-(5-benzenesulfonyl-1H-indazol-3-ylcarbamoyl)-5-(4-methyl-piperazin-1-yl)-phenyl]amide], the IC50 turned out to be 270 nM.
As to `CN1CCN(c2ccc(C(=O)Nc3n[nH]c4ccc(S(=O)(=O)c5ccccc5)cc34)c(NC(=O)[C@@H]3CCCO3)c2)CC1` [Compound 36, (S)-Tetrahydro-furan-2-carboxylic acid [2-(5-benzenesulfonyl-1H-indazol-3-ylcarbamoyl)-5-(4-methyl-piperazin-1-yl)-phenyl]-amide], 1200 nM corresponded to half-maximal inhibition (IC50).
